Data published in patent US9428477B2, “Trans-2-decenoic acid derivative and drug containing same” (NIPPON ZOKI PHARMACEUTICAL CO., LTD., priority 2012, dated 2016).

What was measured:
[1] = test system: rats with paclitaxel-induced peripheral nerve disorder; assay: Rat peripheral nerve disorder induced by paclitaxel, von Frey test; type: in vivo; details: ip, test drug intraperitoneally, single dose, higher of values 1 and 5 hours after administration, mechanical stimulus of right hind limb, normal threshold 15, read-out: Recovery Rate of 50% Reaction Threshold Value
Method: The effects of the compounds of the present invention were evaluated for a peripheral nerve disorder which is a side effect induced by the administration of an anti-cancer agent paclitaxel, such as hyperesthesia including allodynia induced by mechanical stimuli, which is a severe pain induced by such tactile stimuli which usually cause no pains. The compound of the present invention was intraperitoneally administered to rats as a test drug to conduct a von Frey test.
Male SD rats of six weeks age (six rats per group) were used as experimental animals, and paclitaxel (2 mg/kg) was intraperitoneally administered every other day for four times in total to prepare rats with paclitaxel-induced peripheral nerve disorder. During the period of 18 to 25 days or during the period of 20 to 27 days after the initiation of paclitaxel administration, the test drug was intraperitoneally administered in a single dose of […], and the following von Frey test was conducted.
(§1) The rats of the above (1) were placed in a transparent acrylic cage with a wire-meshed floor and habituated for about three minutes, and the 50% reaction threshold values to the mechanical stimulus of right hind limb were measured before administration of the test drug and after 1 and 5 hours from the initiation of the administration.
(§2) The measurement was conducted using von Frey filaments (manufactured by North Coast Medical Inc.) in accordance with the methods of Chaplan, et al. (Journal of Neuroscience Methods, 53(1), 55-63, 1994) and Dixon, et al. (Annual Review of Pharmacology and Toxicology, 20, 441-462, 1980). […] The case where the rat escaped at the instance of removing the filament was also called positive. When the positive reaction was found, stimulus was applied similarly with a filament of one rank weaker, and in the absence of the reaction, stimulus was similarly applied with a filament of one rank stronger, and a point where the reaction changed from negative to positive or from positive to negative was called the first two reactions. Subsequently, stimuli were applied for continuously four times by the same up-down method. A 50% reaction threshold value to the mechanical stimulus was measured using the reaction to the six stimuli in total and then (mean value)±(standard error) for each group was calculated. Incidentally, when stimulus reached to a load of 15.0 g without positive reaction, or when positive reaction continued to a load of 0.4 g, 15.0 g or 0.25 g was adopted as each of 50% reaction threshold values. With regard to the higher 50% reaction threshold value between the 50% threshold values after 1 hour and 5 hours from administration of a test drug, a recovery rate (%) of the 50% reaction threshold value was calculated by the following expression in which 15 was taken as a normal threshold value.
Recovery rate (%) of 50% reaction threshold value=[(50% reaction threshold value after 1 hour or 5 hours from administration of test drug)−(50% reaction threshold value before administration of test drug)]/[(Normal threshold value)−(50% reaction threshold value before administration of test drug)]×100

[2] = test system: MAP kinase (ERK 1/2); assay: Activation (phosphorylation) of MAP kinase in cultured cerebral cortex nerve cells, Western immunoblotting; type: cell-based; details: 0.5 h; fetal rat cerebral cortex nerve cells; compound 250 μg/ml in 0.1% DMSO; 30 minutes; relative to control = 1.00; read-out: Ratio of pMAPK to MAPK
Method: With regard to the compounds of the present invention, the activation of MAP kinase (ERK 1/2) was measured in accordance with a Western immunoblotting in the following manner.
Nerve cells were dispersed from cerebral cortex of a fetal rat of 17 days age, and the nerve cells were cultured for one day in a Dulbecco's modified Eagle's medium (DMEM) containing 5% fetal bovine serum. The culture medium was exchanged with a serum-free medium (B27 supplemented Neurobasal; Invitrogen), and the nerve cells were cultured at the density of 20,000 to 40,000 cells/cm^2 in a polyornithine-coated culture dish.
After three days, the compound of the present invention was added, and the culture was continued for 30 minutes. Thereafter, the cells were recovered on ice using a solution containing a phosphatase inhibitor where Tris-HCl buffer was used as a base. The protein concentration of the resulting cell extract was quantified with a BCA Protein Assay Kit (Takara Bio Co., Ltd.), and a certain amount of the protein (3 μg for the measurement of MAP kinase and 5 μg for the measurement of phosphorylated MAP kinase) was subjected to polyacrylamide gel electrophoresis. The protein was transferred from the electrophoresed gel to a PVDF membrane, and Western immunoblotting was carried out using each of an anti-MAP kinase antibody (Cell Signaling Technology) and an anti-phosphorylated MAP kinase antibody (Cell Signaling Technology) of the primary antibody.
Subsequently, the reaction with an alkaline phosphatase-labeled anti-rabbit IgG antibody (Promega) of the secondary antibody was carried out, and the enzymatic activity was allowed to develop color, to measure MAP kinase (MAPK) and the phosphorylated MAP kinase (pMAPK).
Incidentally, each of the compounds of the present invention was dissolved in 0.1% DMSO to adjust its concentration to 250 μg/ml. As to the control, 0.1% DMSO was added.
The intensity of the concentration of the bands of eletrophoresed the gel was calculated and quantified using Image J (K. K. Bioarts). The numerical values for the MAPK when using the compounds of the present invention were each divided by the numerical value for the MAPK of the control, and the numerical values for the pMAPK when using the compounds of the present invention were divided by the numerical value for the pMAPK of the control, whereby a ratio of the MAPK when using each of the compounds of the present invention to the control, and a ratio of the pMAPK when using each of the compounds of the present invention to the control were obtained. Subsequently, the ratio of the pMAPK to the control obtained was divided by the ratio of the MAPK to the control to obtain a ratio of the pMAPK to the MAPK.

[3] = test system: MIA-induced OA rats; assay: Analgesic action against osteoarthritis model rats (MIA-induced OA), von Frey test; type: in vivo, rat; details: intraperitoneally, single dose of 500 μg/kg, hyperalgesia of OA induced by MIA
Method: as §1
as §2, with “value. […]” for “value.”
A 50% reaction threshold value to the mechanical stimulus of male Wistar rats of six weeks age was measured (the measurement method will be mentioned later), and a normal control group was selected. […]
With regard to the male Wistar rats of six weeks age used as experimental animals except the normal control group, their 50% reaction threshold values to the mechanical stimulus (the measuring method will be mentioned later) and body weights were measured after 24 days from the administration of MIA mentioned in (1) and then 3 groups, i.e. a normal control group, an onset control group, and a test drug-administered group, six rats per group, were organized. […]

Row | Structure (SMILES) | change in vivo at 0.3 mg/kg [1] [%] | fold induction at 250 µg/mL [2] | melting point [°C] | Recovery Rate of 50% Reaction Threshold [3] [%]
1 | CCCCCCC/C=C/C(=O)N1CCN(CCc2ccccc2)CC1 [Compound 27, 1-((E)-2-Decenoyl)-4-(2-phenylethyl)piperazine] | 69.1 | 1.44 | 33 to 34 | –
2 | CCCCCCC/C=C/C(=O)N1CCCC1 [Compound 1, 1-((E)-2-Decenoyl)pyrrolidine] | 58.2 | – | – | 24.2
3 | CCCCCCC/C=C/C(=O)N1CCN(CCC(=O)O)CC1 [Compound 21, 3-[4-((E)-2-decenoyl)piperazin-1-yl]propionic acid] | 34.8 | 1.54 | 53 to 55 | –
4 | CCCCCCC/C=C/C(=O)N1CCC[C@H]1C(=O)O [Compound 2, (S)-1-((E)-2-Decenoyl)pyrrolidine-2-carboxylic acid] | 23.5 | 1.28 | – | –
5 | CCCCCCC/C=C/C(=O)N1CCN(C2CCCCC2)CC1 [Compound 23, 4-Cyclohexyl-1-((E)-2-decenoyl)piperazine] | 33 | 1.3 | 33 to 34 | –
6 | CCCCCCC/C=C/C(=O)N1CCN(c2ccccc2)CC1 [Compound 25, 1-((E)-2-Decenoyl)-4-phenylpiperazine] | 55.3 | – | – | 18.9
7 | CCCCCCC/C=C/C(=O)N1CCC(CN(CC)CC)CC1 [Compound 14, 1-((E)-2-Decenoyl)-4-diethylaminomethylpiperidine] | 26 | 2.08 | – | –
8 | CCCCCCC/C=C/C(=O)N1CCN(CCN(C)C)CC1 [Compound 22, 1-((E)-2-Decenoyl)-4-[2-(dimethylamino)ethyl]piperazine] | 29.7 | – | – | 13.2
9 | CCCCCCC/C=C/C(=O)N1CCC(=O)CC1 [Compound 7, 1-((E)-2-decenoyl)piperidin-4-one] | 45.2 | 1.62 | – | –
10 | CCCCCCC/C=C/C(=O)N1CCN(Cc2ccccc2)CC1 [Compound 26, 4-Benzyl-1-((E)-2-decenoyl)piperazine] | 24.1 | 1.48 | 62 to 63 | –
11 | CCCCCCC/C=C/C(=O)N1CCCCC1 [Compound 5, 1-((E)-2-Decenoyl)piperidine] | 41.6 | – | – | 35.8
